The test system of one series is Listeria monocytogenes. Put plainly: Listeria infection in mice pretreated with TLR ligands. Format: in vivo. The conditions noted are these: 10 μg three days before infection with 7×10^5 Listeria monocytogenes, observed nine days. The method, then:
Groups of six mice were injected with 10 μg of either ISS-ODN, Pam3Cys, or polyI:C three days before infection with 7×10^5 Listeria monocytogenes. […] 5 mice also each received 10 μg of R-848, 24 hours before infection. […]

For another series, the system named is Salmonella. The conditions noted are these: human macrophages treated overnight with IFN-γ 100 ng/ml; over 24 hours; cited from earlier work.
The test system of another series is cowpox. Conditions: cidofovir 30 mg/kg i.p.; Smee et al. 2002; cited from earlier work.
Series [1] has as its system human peripheral blood leukocytes (hPBL). Nature of the series: IL-12 production in human peripheral blood leukocytes (ELISA). Format: cell-based. Conditions: TOG 100 μM, 24 hours. A general note: An ELISA detects its analyte on a solid surface through an enzyme-linked reagent.
The test system of series [2] is mice. Nature of the series: ISS pre-priming before β-gal immunization (splenocyte IFN-γ and CTL response). Conditions: ISS up to 14 days prior to β-gal, compared to β-gal alone (P≦0.05). Format: in vivo. From the text:
FIG. 3 depicts splenocyte CTL and IFN-γ response after intradermal ISS pre-priming. Results represent the mean ± SE for four mice in each group and similar results were obtained in two other independent experiments. […] (a) IFN-γ response. […] (C) Comparison of CTL response at an effector:target ratio of 25:1.
In this experiment, the amount of time between which a mouse exposed to an antigen can produce an immune response was examined. (FIG. 3)
The results in FIG. 3 represent the mean ± SE for four mice in each group. Similar results were obtained in two other independent experiments. […] (A) IFN-γ response. […] (C) Comparison of CTL response at an effector:target ratio of 25:1.

The subject of series [3] is IRF-1, IRF-3, IRF-7, NF-kB, STAT-1. Put plainly: Activation of IRFs, NF-kB and STAT-1 in BMDM (immunoblotting of nuclear extracts, EMSA). Format: cell-based, mouse. In general terms: In EMSA bound probe runs differently from free probe, usually more slowly.
For series [4], the system named is DNA dependent protein kinase catalytic subunit (DNA-PKcs). Put plainly: Activation of DNA-PK in BMDM (in vitro kinase assay, GST-p53 substrate or autophosphorylation). Format: cell-based. The protocol:
IMPDH inhibitors and TLR7 activate DNA-PK. BMDM were stimulated with the Mb alone, TOG alone, or a combination of Mb and TOG. Activation of DNA-PK was measured by in vitro kinase assay using a GST-p53 substrate or DNA-PKcs autophosphorylation.
Activation of DNA-PK was measured by in vitro kinase assay using a GST-p53 substrate or DNA-PKcs autophosphorylation.

The test system of a further series is Punta toro. The conditions noted are these: literature (Smee et al.; Sidwell et al.); cited from earlier work.
Series [5] relates to mice. Conditions: cited from earlier work.
In series [6] the test system is murine bone marrow mononuclear cells. Put plainly: Cytokine responses of murine bone marrow mononuclear cells to TLR ligands (ELISA). Format: cell-based. Conditions: 48 hours, supernatant ELISA, PolyI:C 100 μg/ml, LPS 1 μg/ml, ISS-ODN 10 μg/ml, n.d.=none detected. The protocol:
The cytokine responses of murine bone marrow mononuclear cells were compared to a TLR2-L (PGS), a TLR3-L (polyI:C), a TLR4-L(LPS), and a TLR9-L (ISS-ODN). IL-12, IL-10, IL-6, IL-1b, and KC (a chemokine) were assayed by ELISA (See 2.1.b Results).
Bone marrow cells were cultured in triplicate at 5×10^5 cells/ml with each TLR ligand in dose response studies covering a 3 log concentration range. The cells were cultured for 48 hours and supernatant cytokine levels were analyzed by ELISA. The minimal optimal concentration for each reagent was reported with a three fold increase in TLR ligand concentration not leading to any significant increase in cytokine production. Results are reported as means ± standard errors. n.d.=none detected

The test system of the next series is BALB/c mice. Nature of the series: Systemic adjuvant activity: intradermal immunization with ovalbumin (OVA) and TLR ligand. Format: in vivo. The method, then:
Recently, the systemic adjuvant activities of other TLR-Ls were evaluated.
Six-week-old BALB/c mice (4 per group) were intradermally immunized with ovalbumin (OVA) (20 ug) and TLR ligand on day 0 and day 7. During week 6, serum was collected and splenocytes were harvested and cultured with OVA (50 ug/ml). After 3 days, splenocyte culture supernatants were collected. Sera Ig levels and splenocyte supernatant cytokine levels were determined by ELISA. Results are reported as means ± standard errors. n.d.=none detected.

For series [7], the system named is Mouse bone marrow-derived macrophages (BMDM). Put plainly: Cytokine production of TLR ligand-stimulated BMDM with IMPDH inhibitors (ELISA). The format is cell-based. The conditions noted are these: for IL-12 production with TOG plus IMPDH inhibitor: TOG 100 μM, mizoribine 10 μM or mizoribine base 10 μM; for cytokine production induced by several different TLR-L: mouse bone marrow derived macrophages.

A further series has as its system splenocytes. Nature of the series: Type I interferon production by splenocytes (bioassay). Format: cell-based, mice. Conditions: for TLR7 mediated type I interferon production in splenocytes: TOG or R-848 with or without Mb 10 μM, 24 hrs. The method, then:
(§1) Type I interferon in serum was measured and results are shown.
Splenocytes of WT or SCID mice were stimulated with the indicated stimuli and Type I interferon was by bioassay.
(FIG. 20.) Splenocytes of WT or SCID mice were stimulated with the indicated stimuli and Type I interferon levels were determined by bioassay.

For series [8], the system named is Type I interferon in serum. Nature of the series: Type I interferon in serum of mice injected with TOG and Mb. Format: in vivo. The conditions noted are these: mice injected intravenously with TOG 250 μg and increasing doses of Mb. The method, then:
as §1

The test system of series [9] is human peripheral blood mononuclear cells. Put plainly: Cytokine production of TLR-L-stimulated human peripheral blood mononuclear cells with IMPDH inhibitors. Format: cell-based.
For a further series, the system named is STAT-1. Put plainly: STAT-1 activation in hPBL (western blotting). The conditions noted are these: by TOG, R-848 1 μM plus increasing doses, 3 hrs. Format: cell-based, human. The protocol:
In the right panel, hPBL were stimulated with R-848 (1 μM) plus increasing doses of Mb or ribavirin (Rb) for 3 hrs and activation of STAT-1 was measured by western blotting. β-actin levels were measured as a control
On the technique in general: A western blot detects proteins with antibodies after separation by electrophoresis.

Series [10] relates to bone marrow derived dendritic cells (DC's). Put plainly: TLR7 signaling in bone marrow derived dendritic cells. The format is cell-based. The conditions noted are these: DC's stimulated by R-848 with Mb. The protocol:
Bone marrow derived DC's were stimulated by R-848 with or without Mb for the indicated time period, and activation of NF-κB, MAP kinases (p38 and EKR) was measured. Actin levels were measured as a control.

Setting [11] is: splenocytes of week 6 cultured 3 days with OVA 50 ug/ml, supernatant ELISA, same immunization, n.d.=none detected.

The source of these data is US20050004144A1, “Combined use of IMPDH inhibitors with toll-like receptor agonists” (REGENTS OF THE UNIVERSITY OF CALIFORNIA, priority 2003, published 2005).

“Also recorded” adds a separate entry of the source. Like-named read-outs stand apart in the source and are kept apart here.

Turning to Pam3Cys, the “protection (survival) of mice from Listeria infection” value in the series on Listeria monocytogenes is “lived longer than controls”.
As to IFN-γ, in the series with Salmonella, the “killing of the inoculum” value is 90-99%.
For the compound `Nc1ccn(C[C@@H](CO)OCP(=O)(O)O)c(=O)n1` [Cidofovir, cidofovir], in the series with cowpox, the lung viral titer is ~10^7 PFU/g of lung and the “protection of mice from death” value is “protects all mice from death”.
With `COc1c(C)c2c(c(O)c1C/C=C(\C)CCC(=O)O)C(=O)OC2` [mycophenolic acid], the “IL-12 production after stimulation with TOG” value in series [1] is “enhanced the increase of IL-12 production”.
As to “m-ODN: control mutated ODN 5′-TGACTGTGAAGGTTAGAGATGA-3′ that lacks ISS activity (DNA, all phosphorothioate, methylation of C not given here)”, in the series on mice [2], the CTL response entry is “did not demonstrate an increased IFN-γ or CTL response” and the “splenocyte IFN-γ response” value is recorded as “did not demonstrate an increased IFN-γ or CTL response”.
Regarding `Nc1nc2c(sc(=O)n2[C@@H]2O[C@H](CO)[C@@H](O)[C@H]2O)c(=O)[nH]1` [TOG, 7-thia-8-oxoguanosine], in [3] (bone marrow cells exposed to TOG), the “levels of nuclear IRF-1, IRF-3 and IRF-7” value was “increase markedly”. In addition, the “activation of DNA-PKcs” value in series [4] (single agents) is recorded as “activate DNA dependent protein kinase catalytic subunit (DNA-PKcs)”. The “protection of mice from Punta toro virus infection” value in the series on Punta toro is reported as “protected mice from lethal infection; also recorded: significant activity”. The toxicity to mice result in the series with mice [5] (mouse, in vivo) is “remarkably non-toxic to mice”.
As for `Nc1nc2c(ccn2[C@@H]2O[C@H](CO)[C@@H](O)[C@H]2O)c(=O)[nH]1` [7-deazaguanosine], the “protection of mice from Punta toro virus infection” value in the series with Punta toro is “protected mice from lethal infection”. Also, the toxicity to mice entry with mice [5] (after systemic administration) is “remarkably non-toxic to mice”.
The compound PolyI:C displayed an IL-12 in series [6] (5×10^5 cells/ml, minimal optimal concentration: PGS 100 μg/ml, means ± standard errors) of 570 ± 62 pg/mL. Moreover, in series [6] (PGS 100 μg/ml), the IL-1b turned out to be 148 ± 27 pg/mL, the IL-6 is 2380 ± 657 pg/mL and the IL-10 was 1374 ± 237 pg/mL. In [6] (chemokine, PGS 100 μg/ml), the KC is 349 ± 62 pg/mL. Besides, the “systemic adjuvant activity for vaccination” value in the series with BALB/c mice (mouse, in vivo) is given as “effective systemic adjuvants”. In the series on BALB/c mice (serum, week 6, OVA 20 ug + TLR ligand i.d. day 0 and day 7, PGS 50 ug, PolyI:C 50 ug, LPS 20 ug, ISS-ODN 50 ug), the IgGl is 18853 ± 2439 U/ml. The IgG2a in the series with BALB/c mice (serum, week 6, OVA 20 ug + TLR ligand i.d. day 0 and day 7, PGS 50 ug, PolyI:C 50 ug, LPS 20 ug, ISS-ODN 50 ug, n.d.=none detected) is 2642 ± 380 U/ml. In addition, in the series with BALB/c mice (setting [11]), the IFNg is 672 ± 322 pg/mL and the IL-5 was 236 ± 87 pg/mL.
For `NC(=O)c1ncn([C@@H]2O[C@H](CO)[C@@H](O)[C@H]2O)c1O` [Mizoribine, mizoribine], in series [7] (24 hrs), the “IL-12 production with TOG plus IMPDH inhibitor” value is on record as “synergize with TOG”. In addition, the “cytokine production induced by several different TLR-L” value in [7] and in series [9] was “potentiated cytokine production” throughout. Moreover, in the series with splenocytes, the “TLR7 mediated type I interferon production in splenocytes” value is given as “more than two-fold”. The “increase of Type I interferon in blood (serum)” value in series [8] is on record as “more than 4 fold”.
Regarding `NC(=O)c1[nH]cnc1O` [mizoribine base], the “IL-12 production with TOG plus IMPDH inhibitor” value in [7] (24 hrs) is listed as “synergize with TOG”. The “cytokine production induced by several different TLR-L” value in [7] and in [9] was “potentiated cytokine production” each time. In addition, the “dependence of IRF activation on DNA-PKcs and MyD88” value in [3] (cells from wild-type mice and SCID mice) is on record as “via DNA-PKcs but not MyD88”. The “TLR7 mediated type I interferon production in splenocytes” value in the series with splenocytes is “augments TLR-7 mediated type I interferon production”. Besides, the “dependence of type I interferon induction by TOG combined with Mb on DNA-PKcs” value in the series on splenocytes (splenocytes of WT or SCID mice, TOG 100 μM, Mb 10 μM) is given as “partially dependent on DNA-PKcs”. Also, the “increase of Type I interferon in blood (serum)” value in [8] was “augments TLR-7 mediated type I interferon production”. The “IL-12 production after stimulation with TOG” value in series [1] is reported as “enhanced the increase of IL-12 production”. Besides, in the series with STAT-1, the “activation of STAT-1” value is given as “enchanced activiation”. Further, the “TLR7 signaling (NF-κB, MAP kinases p38 and EKR)” value in [10] was “enhanced TLR7 signaling in DC's”. For the same compound, in series [4], the “DNA-PK activation by the combination of TOG and Mb” value was “increased phosphorylation of substrates and earlier onset of phosphorylation”.
For the compound `NC(=O)c1ncn([C@@H]2O[C@H](CO)[C@@H](O)[C@H]2O)n1` [Ribavirin], the “IL-6 production by R-848 in the presence of ribavirin” value in [7] (macrophages, abolished by addition of guanosine to the media (not shown)) was “enhancement of IL-6 production by R-848”. Further, the “cytokine production induced by several different TLR-L” value in series [7] and in series [9] was “potentiated cytokine production” throughout. Besides, the “cytokine induction by ribavirin alone” value in [7] (no TLR ligand) was “did not induce any cytokines”. For the same compound, the “TLR-mediated production of IL-12 (p40) in the presence of ribavirin” value in [7] (ribavirin 10, 50, 100 μM, TLR ligands TOG 100 μM, R-848 1 μM, Pam3Cys 5 μg, p(I:C) 5 μg, LPS 10 ng, ISS 5 μg, 24 hrs) is reported as “enhances TLR-mediated production of IL-12 (p40) in a dose dependent manner”. Besides, the “TOG-induced NF-κB activation (EMSA) and IRF-3 (western blotting)” value in [3] (BMDM, TOG with Rb 50 μM) was “enhances TOG-induced NF-κB activation and activates IRF-3 transcription factor”. Besides, the “IL-12 production after stimulation with TOG” value in series [1] is listed as “enhanced the increase of IL-12 production”. Also, the “activation of STAT-1” value in the series with STAT-1 is given as “enchanced activiation”. For the same compound, the “protection of mice from Punta toro virus infection” value in the series on Punta toro is “significant activity”.
Take `CCCCCCn1cnc2c(=O)[nH]c(N)nc21` [9-hexylguanine]: the “protection of mice from Punta toro virus infection” value with Punta toro is recorded as “protected mice from lethal infection”.
